Values joined by “and” are separate entries in the source; they are usually repeats but may differ in a detail not shown here. Equal values may be shown once.
Key:
[1] = literature statement; cited from earlier work
[2] = system: spleen T cells, B cells and NK cells; experiment: Immunophenotyping of splenocytes by flow cytometry; format: in vivo, BALB/c mice
Protocol: In general, the immunophenotyping technique consisted briefly of isolating cells from the peripheral blood or an organ (spleen or thymus), labeling them with a panel of antibodies specific for certain antigens of the membrane, and allowing to quantify the different populations. Analysis was performed by flow cytometry since antibodies were conjugated with a fluorochrome (Longbardi, Givan, A., 1994, Flow cytometry. First principles, Wiley-Liss Inc. New York.).
To immunophenotype immune cells, splenocytes were diluted to a concentration of […]. A total of 1×10^6 cells were distributed in a V-shape 96 well plate. A total of 7 wells were necessary for each sample. Plates were centrifuged 5 minutes at 1200 rpm. Supernatant was discarded and pellet were vortexed. Monoclonal antibodies were distributed in each wells according to the following set up:
The antibodies used are commercially available from Becton Dickinson (San Jose, Calif.). The cells were incubated with the antibodies for 30 minutes on ice, washed three times with D-PBS+1% BSA, spun at 1200 rpm for 5 minutes using a multichannel pipette, suspended in 1 ml of paraformaldehyde 2% (v/v), and transferred into flow cytometry tubes. Samples were analyzed using EPICS XL from Beckman Coulter flow cytometer. Results were expressed as percentage of the population expressing the specific surface antigen. Live population of cells were gated upon using forward scatter (FS) vs. side scatter (SS) to distinguish live cells from dead cells. A total of 10,000 gated cells were counted for statistical relevance. The FL1 band pass filter (set at 525 nm) was used to detect fluoroscein isothiocyanate (FITC) fluorescence. The FL2 band pass filter (set at 575 nm) was used to detect phycoerythrin (PE) fluorescence. The cursors are set accordingly to delineate the positive region. This region should be relative to 1% of the unstained control (cell control). Results are expressed as % of positive population expressing the specific surface antigens. Student's T test was performed between the control group and the treated group. The p value was calculated for statistical significance.

NK cells = experiment: NK cell activity, standard 51Cr release assay with YAC-1 target cells; format: in vivo, BALB/c mice; parameters: NK activity (%): concentration or dose not given beside the values; details: for NK activity (%): % specific lysis, E:T 200:1
Protocol: NK cell activity was determined by using a standard NK assay (Coligan, J. E. et al. 1993. “In Vitro Assays for mouse lymphocyte function” Chapter 3, Current Protocol in Imnunology, John Wiley & Sons, New York) using YAC-1 cells (ATCC #TIB-160) as target cells. These cells were washed twice with HBSS, counted, and suspended at a concentration of 5×10^6 cells/ml. About 5×10^6 cells were labeled with 100 μCi of ^51Cr. Cells were incubated 90 minutes at 37° C. in a 5% CO2 humidified incubator and then washed three times with RPMI, counted, and suspended at a concentration of 1×10^5 cells/ml in complete RPMI. About 100 μl of target cells (˜1×10^4 cells) was put into each well of a round-bottom 96 wells plate.
Four dilutions of splenocytes were prepared: 2×10^7 cells/ml, 1×10^7 cells/ml, 0.5×10^7 cells/ml, and 0.25×10^7 cells/ml. A volume of 100 μl of each splenocyte dilution was plated in triplicate with the target cells for a final effector:target (E:T) ratio of 200:1, 100:1, 50:1 and 25:1.
A maximal control release was prepared in triplicate on each plate by adding 100 μl of 5% Triton X-100 solution instead of effector cells. Spontaneous release was prepared in triplicate on each plate by adding 100 μl of complete RPMI instead of effector cells. Plates were centrifuged and incubated 4 hours at 37° C. in a 5% CO2 humidified incubator. After incubation, the supernatants were collected and the ^51Cr release was determined using a gamma counter. The average cpm count was calculated for each triplicate. The average cpm count for the total and spontaneous release was also calculated. The percentage (%) of specific lysis is calculated using the following formula:
Where, ER=Experimental release of ^51Cr • TR=Total release of ^51Cr • SR=Spontaneous release of ^51Cr
The % of specific lysis for every ratio (200:1, 100:1, 50:1 and 25:1) was calculated. A graphic representation of the results is done: specific lysis % versus the ratio to verify the linearity. For BALB/c mice strains which usually show low NK activity, specific lysis corresponding to an E:T ratio of 200:1 is used to represent the data for each animal. The mean NK activity is then calculated for each control and treated group. Student's T test was performed between the control group and the treated group. The p value was calculated for statistical significance.
In this assay, the effect on the NK activity of feeding Balb/c mice with compound CPDS for short term (6 days) and longer term (30 days) was evaluated. The NK cells are a lymphocyte subset with non specific cytotoxicity activity. Results are presented as the % of specific lysis of target cells for a ratio of 200:1 (Table 8 and FIG. 2). Balb/c mice normally show low NK activity which justifies the choice of the 200:1 ratio for the comparison between groups.

[3] = 30 days on CPDS diet vs group 1
[4] = Group 2, 30 days on CPDS diet, Mean ± S.D.
[5] = Group 2, 30 days on CPDS diet, individual mice
[6] = Group 6, 6 days on CPDS diet, Mean ± S.D.
[7] = Group 6, 6 days on CPDS diet, individual mice

Compound: O=C(O)c1ccc(SSc2ccc(C(=O)O)cn2)nc1 [CPDS, 6,6′-dithiodinicotinic acid]
- Toxicity [1]: low toxicity
- B cells, variation (%) ([2]; 6 days on CPDS diet vs Group 5): −1.0%
- CD4+, variation (%) ([2]; 6 days on CPDS diet vs Group 5): −8.5%
- CD8+, variation (%) ([2]; 6 days on CPDS diet vs Group 5): −6.8%
- NK cells, variation (%) ([2]; 6 days on CPDS diet vs Group 5): 43.5%
- Ratio CD4/CD8, variation (%) ([2]; 6 days on CPDS diet vs Group 5): −1.8%
- Total T cells, variation (%) ([2]; 6 days on CPDS diet vs Group 5): −8.0%
- Immunophenotyping: B cells, effect of CPDS diet ([2]; 6 days, n=3): no significant effect
- Immunophenotyping: Ratio CD4/CD8, effect of CPDS diet ([2]; 6 days, n=3): No effect
- Immunophenotyping: T CD4+, effect of CPDS diet ([2]; 6 days, n=3): No effect
- Immunophenotyping: T CD8+, effect of CPDS diet ([2]; 6 days, n=3): No effect
- Immunophenotyping: Total T cells, effect of CPDS diet ([2]; 6 days, n=3): no significant effect
- Immunophenotyping: NK cells, effect of CPDS diet ([2]; 6 days, n=3, arrow image = increase): tendency toward an increase
- B cells, variation (%) [2, 3]: −19.9%
- CD4+, variation (%) [2, 3]: −3.9%
- CD8+, variation (%) [2, 3]: −11.0%
- NK cells, variation (%) [2, 3]: 69.4%
- Ratio CD4/CD8, variation (%) [2, 3]: 7.7%
- Total T cells, variation (%) [2, 3]: −1.2%
- Immunophenotyping: T CD4+, effect of CPDS diet ([2]; 30 days, n=8): No effect
- Immunophenotyping: Total T cells, effect of CPDS diet ([2]; 30 days, n=8): No effect
- Immunophenotyping: T CD8+, effect of CPDS diet ([2]; 30 days, n=8, arrow image = decrease): tendency to decrease
- Immunophenotyping: Ratio CD4/CD8, effect of CPDS diet ([2]; 30 days, n=8, arrow image = increase): tendency
- B cells (%) [2, 4]: 23.4 ± 2.0%
- CD4+ (%) [2, 4]: 23.6 ± 2.3%
- CD8+ (%) [2, 4]: 9.6 ± 1.2%
- NK cells (%) [2, 4]: 6.9 ± 4.9%
- Ratio CD4/CD8 [2, 4]: 2.49 ± 0.26
- Total T cells (%) [2, 4]: 38.4 ± 2.9%
- B cells (%) [2, 5]: 24.0% and 25.9% and 25.0% and 21.5% and 23.8% and 22.3% and 24.8% and 20.1%
- CD4+ (%) [2, 5]: 21.7% (2×) and 24.0% and 28.3% and 25.7% and 23.2% and 22.2% and 22.1%
- CD8+ (%) [2, 5]: 8.5% and 9.58% and 10.2% and 11.5% and 9.66% and 7.92% and 8.54% and 10.5%
- NK cells (%) [2, 5]: 16.8% and 4.8% (2×) and 11.9% and 3.72% and 2.6% and 5.56% and 4.76%
- Ratio CD4/CD8 [2, 5]: 2.55 and 2.27 and 2.35 and 2.46 and 2.66 and 2.93 and 2.60 and 2.1
- Total T cells (%) [2, 5]: 35.8% and 36.8% and 39.6% and 44.6% and 39.8% and 37.5% and 36.0% and 37.4%
- B cells (%) [2, 6]: 50.3 ± 0.5%
- CD4+ (%) [2, 6]: 25.8 ± 2.3%
- CD8+ (%) [2, 6]: 13.6 ± 0.9%
- NK cells (%) [2, 6]: 11.9 ± 2.7%
- Ratio CD4/CD8 [2, 6]: 1.90 ± 0.06
- Total T cells (%) [2, 6]: 41.4 ± 2.5%
- B cells (%) [2, 7]: 49.8% and 50.7% and 50.3%
- CD4+ (%) [2, 7]: 26.4% and 23.3% and 27.8%
- CD8+ (%) [2, 7]: 14.0% and 12.6% and 14.2%
- NK cells (%) [2, 7]: 9.7% and 14.1% and 9.1%
- Ratio CD4/CD8 [2, 7]: 1.89 and 1.85 and 1.96
- Total T cells (%) [2, 7]: 42.8% and 38.6% and 42.9%
- NK activity, effect of CPDS diet (NK cells; 6 days, vs control): No significant effect
- NK activity, variation (NK cells; Group 2, 30 days on CPDS diet vs Group 1): 24.7%
- NK activity (%) (NK cells; [4]): 6.8 ± 1.4%
- NK activity (%) (NK cells; [5]): 8.7% and 7.9% and 5.0% and 6.9% and 6.3% and 5.6% (2×) and 8.2%
- NK activity, variation (NK cells; Group 6, 6 days on CPDS diet vs group 5): −13.1%
- NK activity (%) (NK cells; [6]): 7.9 ± 2.0%
- NK activity (%) (NK cells; [7]): 10.2% and 7.0% and 6.6%
